“And” between values parts separate entries of the source, which are not always exact repeats. Equal values may be shown once.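 These data come from cells grown in 96-well plates and exposed to compound for 48 hours at five concentrations. GI50: concentration for 50% inhibition of growth. The concentration for full growth arrest is given as TGI.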
Key:
Assay in all cases: NCI-60 cell line screen, 48 h
[1] = system: MOLT-4 leukemia
[2] = system: A498 renal
[3] = system: IGROV1 ovarian
[4] = system: HCC-2998 colon
[5] = system: SK-MEL-28 melanoma
[6] = system: OVCAR-8 ovarian
[7] = system: SF-295 CNS
[8] = system: MCF7 breast
[9] = system: HCT-15 colon
[10] = system: OVCAR-4 ovarian
[11] = system: SK-MEL-2 melanoma
[12] = system: KM12 colon
[13] = system: HOP-92 NSCLC
[14] = system: T-47D breast
[15] = system: HT29 colon
[16] = system: HS 578T breast
[17] = system: ACHN renal
[18] = system: MALME-3M melanoma
[19] = system: SN12C renal
[20] = system: SNB-19 CNS
[21] = system: HL-60(TB) leukemia
[22] = system: U251 CNS
[23] = system: UACC-62 melanoma
[24] = system: SK-MEL-5 melanoma
[25] = system: K-562 leukemia
[26] = system: M14 melanoma
[27] = system: SF-539 CNS
[28] = system: NCI-H226 lung
[29] = system: NCI-H460 lung
[30] = system: MDA-MB-231 breast
[31] = system: NCI/ADR-RES ovarian
[32] = system: DU-145 prostate
[33] = system: HOP-62 NSCLC
[34] = system: SK-OV-3 ovarian
[35] = system: MDA-MB-435
[36] = system: OVCAR-5 ovarian
[37] = system: MDA-N
[38] = system: UACC-257 melanoma
[39] = system: LOX IMVI melanoma
[40] = system: NCI-H522 lung
[41] = system: CAKI-1 renal
[42] = system: HCT-116 colon
[43] = system: BT-549 breast
[44] = system: 786-0 renal
[45] = system: COLO 205 colon
[46] = system: TK-10 renal
[47] = system: OVCAR-3 ovarian
[48] = system: CCRF-CEM leukemia
[49] = system: SF-268 CNS
[50] = system: A549 NSCLC
[51] = system: SR leukemia
[52] = system: NCI-H23 lung
[53] = system: SNB-75 CNS
[54] = system: RPMI-8226 leukemia
[55] = system: EKVX NSCLC
[56] = system: SW-620 colon
[57] = system: PC-3 prostate
[58] = system: RXF 393 renal
[59] = system: UO-31 renal

CC(=O)c1c(-c2ccc(Cl)cc2)c(C#N)c(=S)n(C2OC(CO)C(O)C(O)C2O)c1-c1ccccc1 (configuration not stated)
TGI [1]: 29.2 µM and > 100 µM
GI50 [2]: > 100 µM and 49.7 µM
TGI [2]: > 100 µM
TGI [3]: > 100 µM
TGI [4]: > 100 µM
TGI [5]: > 100 µM
TGI [6]: > 100 µM
TGI [7]: > 100 µM
TGI [8]: > 100 µM
TGI [9]: > 100 µM
GI50 [10]: > 86.4 µM and 14.7 µM
TGI [10]: > 100 µM
GI50 [11]: > 84.5 µM and 35 µM
TGI [11]: > 100 µM
TGI [12]: > 100 µM
TGI [13]: > 100 µM and 74.1 µM
TGI [14]: > 100 µM
TGI [15]: > 100 µM
TGI [16]: > 100 µM
TGI [17]: > 100 µM
TGI [18]: > 100 µM
TGI [19]: > 100 µM
GI50 [20]: 34.8 µM and > 100 µM
TGI [20]: > 100 µM
GI50 [21]: 30.9 µM and 62.2 µM
TGI [21]: > 100 µM
GI50 [22]: 42.8 µM and > 100 µM
TGI [22]: > 100 µM
GI50 [23]: 4.85 µM and 21.9 µM
TGI [23]: > 100 µM
GI50 [24]: 31.8 µM and > 100 µM
TGI [24]: > 100 µM
GI50 [25]: 26 µM and > 100 µM
TGI [25]: > 100 µM
TGI [26]: > 100 µM
GI50 [27]: > 100 µM
TGI [27]: > 100 µM
TGI [28]: > 100 µM
TGI [29]: > 100 µM
GI50 [30]: > 22.6 µM and 76.3 µM
TGI [30]: > 100 µM
TGI [31]: > 100 µM
TGI [32]: > 100 µM
GI50 [33]: 39.8 µM and > 100 µM
TGI [33]: > 100 µM
TGI [34]: > 100 µM
TGI [35]: > 100 µM
GI50 [36]: > 100 µM
TGI [36]: > 100 µM
TGI [37]: > 100 µM
TGI [38]: > 100 µM
GI50 [39]: 15.9 µM and > 100 µM
TGI [39]: > 100 µM
TGI [40]: > 100 µM
TGI [41]: > 100 µM
GI50 [42]: 17.4 µM and > 100 µM
TGI [42]: > 100 µM
TGI [43]: > 100 µM
GI50 [44]: 48.8 µM and > 100 µM
TGI [44]: > 100 µM
GI50 [45]: 47.3 µM and > 100 µM
TGI [45]: > 100 µM
TGI [46]: > 100 µM
TGI [47]: > 100 µM
GI50 [48]: 13.1 µM and 55.4 µM
TGI [48]: 99.5 µM and > 100 µM
TGI [49]: > 100 µM
GI50 [50]: 46.7 µM and > 100 µM
TGI [50]: > 100 µM
TGI [51]: 61.8 µM and > 100 µM
TGI [52]: > 100 µM
TGI [53]: > 100 µM
TGI [54]: > 100 µM
GI50 [55]: 99.7 µM and 22.2 µM
TGI [55]: > 100 µM
TGI [56]: > 100 µM
GI50 [57]: 7.97 µM and 58.6 µM
TGI [57]: > 100 µM
TGI [58]: > 100 µM

CC(C)NC(=O)OCc1c(COC(=O)NC(C)C)n(C)c2c1ccc1ccsc12
TGI [1]: 12.4 µM
TGI [2]: 35.3 µM
TGI [3]: 53.3 µM
TGI [4]: 28.6 µM
TGI [5]: 30 µM
TGI [6]: 40.5 µM
TGI [7]: > 81.4 µM
TGI [8]: > 53.1 µM
TGI [9]: 28.1 µM
TGI [10]: 23.7 µM
TGI [11]: 31.8 µM
TGI [12]: 38.3 µM
TGI [13]: 45.4 µM
TGI [14]: > 100 µM
TGI [15]: 38.5 µM
TGI [16]: 48.5 µM
TGI [17]: 14.2 µM
TGI [18]: 18.3 µM
TGI [19]: 35.2 µM
TGI [20]: 52.2 µM
TGI [21]: 9.93 µM
TGI [22]: 35.8 µM
TGI [23]: 22.9 µM
TGI [24]: 22.7 µM
TGI [25]: 54.8 µM
TGI [26]: 22.5 µM
TGI [28]: 28.7 µM
TGI [29]: 21.2 µM
TGI [30]: 38.4 µM
TGI [31]: 31.4 µM
TGI [32]: 27.4 µM
TGI [33]: 55.9 µM
TGI [34]: 69.6 µM
TGI [35]: 25.3 µM
TGI [36]: 54.1 µM
TGI [37]: 26.1 µM
TGI [38]: 31.7 µM
TGI [39]: 30 µM
TGI [40]: 21.5 µM
TGI [41]: 13.9 µM
TGI [42]: 31.8 µM
TGI [43]: 28.4 µM
TGI [44]: 23.4 µM
TGI [45]: 26 µM
TGI [46]: > 94.4 µM
TGI [47]: 40 µM
TGI [48]: 7.31 µM
TGI [49]: 25.4 µM
TGI [50]: 47.4 µM
TGI [51]: 8.45 µM
TGI [52]: 21.8 µM
TGI [53]: 26.9 µM
TGI [54]: 20.3 µM
TGI [55]: 48.1 µM
TGI [56]: > 45 µM
TGI [57]: 39.9 µM
TGI [58]: 21.1 µM
TGI [59]: 26.6 µM
